Data published in publication PMC5635026, “Homo-PROTACs: bivalent small-molecule dimerizers of the VHL E3 ubiquitin ligase to induce self-degradation” (Nature Communications, 2017).

What was measured:
V19CB = biological target: T1, V19CB (Homo sapiens, UniProt P40337); assay: Size-exclusion chromatography (SEC) of complex formation with V19CB; format: binding; details: compound 30 µM; for shift of VCB peak / ternary complex formation in SEC: VCB 50 µM
T1 construct: made in house
Procedure: Protein expression and purification. Human proteins VHL (UniProt accession number: P40337), ElonginC (Q15369), and ElonginB (Q15370) were used for all protein expression. The short-isoform-containing VCB complex (V19CB) was expressed, purified and stored as described previously. For expression of the long-isoform-containing VCB complex (V30CB), N-terminally His6-tagged VHL (1–213), ElonginC (17–112) and ElonginB (1–104) were co-expressed in Escherichia coli BL21(DE3) at 20 °C for 18 h using 0.5 mM isopropyl β-D-1-thiogalactopyranoside (IPTG). E. coli cells were resuspended in binding buffer (50 mM HEPES, pH 8.0, 500 mM NaCl, 10 mM imidazole and 5 mM β-mercaptoethanol), lysed using a pressure cell homogenizer (Stansted Fluid Power), and lysate clarified by centrifugation. The supernatant was loaded onto a HisTrap FF affinity column (GE Healthcare) equilibrated with binding buffer, and bound protein was eluted using an imidazole gradient. The His6 tag was removed using thrombin protease (Sigma), and the untagged complex was dialyzed into binding buffer. V30CB was then loaded onto the HisTrap FF column a second time, allowing impurities to bind as the complex eluted without binding. The flow-through was dialyzed using a low-salt buffer (20 mM HEPES, pH 8.0, 25 mM NaCl and 1 mM DTT) and then loaded onto a Resource Q anion exchange column (GE Healthcare); bound protein was eluted across a linear NaCl gradient. V30CB was then additionally purified by size-exclusion chromatography using a Superdex-75 16/600 column (GE Healthcare) equilibrated with 20 mM HEPES, pH 7.5, 100 mM sodium chloride and 1 mM TCEP. All chromatography purification steps were performed using Äkta FPLC purification systems (GE Healthcare).
Size-exclusion chromatography (SEC). SEC experiments were carried out in a ÄKTA pure system (GE Healthcare) at room temperature. The oligomeric state of the VCB complex in solution was analyzed by gel filtration in a buffer containing 20 mM Bis-Tris (pH 7), 150 mM NaCl and 1 mM 1,4-dithiothreitol (DTT) using a Superdex 200 Increase 10/300 GL column (GE Healthcare) calibrated with globular proteins of known molecular weight (GE Healthcare, 28-4038-41/42). […] Sample volume for each injection was 200 µl, and the flow rate was 0.5 ml min^−1. Peak elution was monitored using ultraviolet absorbance at 280 nm.

Hdy-HIF-1α = assay: Immunoblot of HIF-1α / hydroxylated HIF-1α levels in HeLa cells; format: cell-based, Human; details: HeLa; for protein levels of hydroxylated HIF-1α (Hdy-HIF-1α): 1 µM, 10 h; for stabilization of Hdy-HIF-1α: 100 µM
Procedure: (§1) Cell culture. Human cell lines HeLa, U2OS and HEK 293, purchased from ATCC, were propagated in DMEM supplemented with 10% fetal bovine serum (FBS), L- glutamine, 100 μg ml^−1 of penicillin/streptomycin at 37 °C and 5% CO2. Cells were maintained for no more than 30 passages. All cell lines were routinely tested for mycoplasma contamination using MycoAlert kit from Lonza. For compound treatment experiments, cells were transferred in six-well plates with either 3 × 10^5 or 5 × 10^5 cells per well in 2 ml of media. At 80% confluence, cells were treated with compounds at the desired concentration, reaching final DMSO concentration of 0.1% v/v. Cells were incubated at 37 °C and 5% CO2 for the desired time before harvesting.
(§2) Immunoblotting. Cells were lysed in lysis buffer (20 mM Tris pH 8, 150 mM NaCl, 1% Triton × 100) and a protease inhibitor cocktail (Roche) per 10 ml buffer. For protein extracts, the dishes were placed on ice. The media was aspirated and the tissue layer washed twice with ice-cold phosphate buffer saline (PBS). Lysis buffer (120 μl) was added and the cells detached from the surface with a cell scraper. After removal of the insoluble fraction by centrifugation, the protein concentration of the supernatant was determined by Pierce™ Coomassie (Bradford) Protein Assay Kit. Protein extracts were fractionated by SDS-PAGE on 4–12% Tris-Acetate NuPage® Novex® (Life Technologies) polyacrylamide gels and transferred to a nitrocellulose membrane using wet transfer. The membrane was then blocked with 5 % w/v Bovine serum albumin (BSA) in Tris-buffered saline (TBS) with 0.1% w/v Tween-20. For detecting proteins the following primary antibodies in the given concentrations were used: anti-β-Actin (Cell Signaling Technology, 4970S, 13E5) 1:2000, anti-VHL (Cell Signaling Technology, #68547) 1:1000, anti-Hif-1α (BD Biosciences, 610959, clone 54) 1:1,000, anti-hydroxy-HIF-1α (Hyp564) (Cell Signaling Techonology; #3434) 1:1,000, anti-PHD2 (Bethyl Laboratories; A300-322A) 1:1,000, anti-PHD3 (Bethyl Laboratories; A300-327A) 1:1000, anti-CRBN (Proteintech; 11435-1-AP) 1:1,000. Following incubation with a horseradish peroxidase-conjugated secondary antibody (Cell Signaling Technology), the signal was developed using enhanced chemiluminescence (ECL) Western Blotting Detection Kit (Amersham) on Amersham Hyperfilm ECL film (Amersham). Band quantification was performed using ImageJ software and reported as relative amount as ratio of the each protein band relative to the lane’s loading control. The values obtained were then normalized to 0.1% DMSO vehicle control. See Supplementary Fig. 12 for full-scanned images of western-blots shown in the main text figures.

pVHL30 = pVHL30 (Homo sapiens, UniProt P40337); assay: Immunoblot of pVHL30 protein level in U2OS cells (time course); format: cell-based; parameters: endogenous in cells; details: for cellular efficacy at longer time points: after 36 h; for time of treatment to complete degradation of pVHL30: time course
Procedure: as §1, §2

T1 sequence (P40337 54-213): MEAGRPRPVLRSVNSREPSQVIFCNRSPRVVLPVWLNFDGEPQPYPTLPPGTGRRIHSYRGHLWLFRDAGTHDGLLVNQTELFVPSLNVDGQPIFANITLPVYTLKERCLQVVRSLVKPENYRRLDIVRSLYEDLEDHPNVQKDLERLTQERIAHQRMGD
T1 sequence (Q15369 17-112 partner limits assumed): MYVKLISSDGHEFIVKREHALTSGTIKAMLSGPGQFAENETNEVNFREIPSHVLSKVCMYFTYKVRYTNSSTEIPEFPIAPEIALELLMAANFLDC
T1 sequence (Q15370 1-104 partner limits assumed): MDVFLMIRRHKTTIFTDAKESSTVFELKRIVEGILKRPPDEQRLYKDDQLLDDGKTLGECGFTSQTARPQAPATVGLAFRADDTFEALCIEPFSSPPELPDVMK
pVHL30, sequence (P40337 whole entry): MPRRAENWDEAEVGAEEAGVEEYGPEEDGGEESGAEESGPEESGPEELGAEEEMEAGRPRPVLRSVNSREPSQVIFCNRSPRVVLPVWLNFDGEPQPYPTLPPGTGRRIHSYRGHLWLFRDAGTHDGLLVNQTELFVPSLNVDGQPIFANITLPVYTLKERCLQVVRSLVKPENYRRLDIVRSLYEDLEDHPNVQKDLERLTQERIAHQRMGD

Row | cellular efficacy at longer time points (pVHL30) | time of treatment to complete degradation of pVHL30 (pVHL30) [h] | molecular weight of species in shifted SEC peak (V19CB; V19CB 50 µM) | Compound | shift of VCB peak / ternary complex formation in SEC (V19CB) | protein levels of hydroxylated HIF-1α (Hdy-HIF-1α) (Hdy-HIF-1α) | stabilization of Hdy-HIF-1α (Hdy-HIF-1α)
1 | retained their efficacy | 2 | – | Cc1ncsc1-c1ccc(CNC(=O)[C@@H]2C[C@@H](O)CN2C(=O)[C@@H](NC(=O)COCCOCCOCCOCCOCC(=O)N[C@H](C(=O)N2C[C@H](O)C[C@H]2C(=O)NCc2ccc(-c3scnc3C)cc2)C(C)(C)C)C(C)(C)C)cc1 [CM10, N ^1 ,N ^17-bis((S)-1-((2S,4R)-4-hydroxy-2-((4-(4-methylthiazol-5-yl)benzyl)carbamoyl)pyrrolidin-1-yl)-3,3-dimethyl-1-oxobutan-2-yl)-3,6,9,12,15-pentaoxaheptadecanediamide] | formation of a ternary complex eluting at identical retention volume when compared to CM11 | detectable albeit low increase | comparable with the effect obtained with VH032 alone
2 | lost its cellular efficacy | 2 | – | Cc1ncsc1-c1ccc(CNC(=O)[C@@H]2C[C@@H](O)CN2C(=O)[C@@H](NC(=O)COCCOCCOCCOCC(=O)N[C@H](C(=O)N2C[C@H](O)C[C@H]2C(=O)NCc2ccc(-c3scnc3C)cc2)C(C)(C)C)C(C)(C)C)cc1 [CM09, N ^1 ,N ^14-bis((S)-1-((2S,4R)-4-hydroxy-2-((4-(4-methylthiazol-5-yl)benzyl)carbamoyl)pyrrolidin-1-yl)-3,3-dimethyl-1-oxobutan-2-yl)-3,6,9,12-tetraoxatetradecanediamide] | formation of a ternary complex eluting at identical retention volume when compared to CM11 | – | comparable with the effect obtained with VH032 alone
3 | retained their efficacy | 1 | ~ 90 kDa | Cc1ncsc1-c1ccc(CNC(=O)[C@@H]2C[C@@H](O)CN2C(=O)[C@@H](NC(=O)COCCOCCOCCOCCOCCOCC(=O)N[C@H](C(=O)N2C[C@H](O)C[C@H]2C(=O)NCc2ccc(-c3scnc3C)cc2)C(C)(C)C)C(C)(C)C)cc1 [CM11, N ^1 ,N ^20-bis((S)-1-((2S,4R)-4-hydroxy-2-((4-(4-methylthiazol-5-yl)benzyl)carbamoyl)pyrrolidin-1-yl)-3,3-dimethyl-1-oxobutan-2-yl)-3,6,9,12,15,18-hexaoxaicosanediamide] | – | detectable albeit low increase | comparable with the effect obtained with VH032 alone
